# Test: In-vitro release of β-estradiol from loaded zeogrid in simulated body fluid (HPLC)
# Format: physicochemical
# Details: 10 mg loaded zeogrid in 20 ml SBF, room temperature, continuous stirring
# Procedure: Loading of the zeogrid sample with β-estradiol proceeds as follows. 50 mg β-estradiol is dissolved in 100 ml methylenechloride. 500 mg of zeogrid is suspended in the solution. Everything is stirred during 24 hours in a closed container. After 24 hours, the container is opened and the methylenechloride is evaporated at room temperature. The resulting powder is further dried and kept during 24 hours under reduced pressure to remove the solvent.
# Release of β-estradiol from zeogrids. Simulated body fluid (SBF) was used as dissolution medium. SBF was prepared by first dissolving 1% SLS (Sodium lauryl sulphate) and 0.90% NaCl in distilled water. The solution was mixed with ethanol in a volume ratio solution:ethanol of 24:1.
# The in-vitro release experiments were carried out at room temperature by dispersing 10 mg quantities of the loaded zeogrid into 20 ml quantities of SBF. In order to avoid limitations of the delivery rate by external diffusion constraints, continuous stirring is maintained. The release profile was obtained by measuring drug concentration in the fluid after different times by means of HPLC.
compound,measurement,value
C[C@]12CC[C@@H]3c4ccc(O)cc4CC[C@H]3[C@@H]1CC[C@@H]2O [β-estradiol],Time after which release of β-estradiol from zeogrid is completed,30 min

# From patent publication US8512734B2, “Biocompatible coating of medical devices” (Katholieke Universiteit Leuven, K.U.Leuven R&D, priority 2004, dated 2013)
